Measured values from patent US8933065B2, “N-benzylamide substituted derivatives of 2-(acylamido)acetic acid and 2-(acylamido)propionic acids: potent neurological agents” (The University of North Carolina at Chapel Hill, priority 2008, dated 2015).
Like-named read-outs stand apart in the source and are kept apart here.

Legend:
[1] = test system: maximal electroshock (MES)-induced seizures; test: Maximal electroshock seizure (MES) test, rat (po); format: in vivo; conditions: for ED50: Rattus norvegicus; for MES, ED50: rat, time (h) in brackets, Table 2
Description: (§2) The maximal electroconvulsive shock (MES) test is regarded as a standard screen for anticonvulsant activity in terms of inhibition of seizure spread in generalized tonic-clonic seizures.
(§3) Groups of at least 8 male albino CF No. 1 mice or male albino Sprague-Dawley rats are treated with 10 mL/kg i.p. or 4 mL/kg p.o. of the test compound solution, respectively. The electrical stimulus in the MES test is 50 mA at 60 Hz for mice and 150 mA at 60 Hz for rats, both delivered for 0.2 sec. Abolition of the hind leg tonic extensor component of the seizure is used as the endpoint.

[2] = test system: behavioral toxicity; test: Toxicity (behavioral toxicity), rat (po); format: in vivo
Description: (§1) Tests are conducted in groups of at least 8 mice or rats to determine the intrinsic neurotoxicity (neuromuscular impairment) after administration of the test compound by the route of administration to be used in the pharmacology studies. Neurotoxicity is determined in male CF No 1 mice by the rotarod procedure. Inability of the mouse to maintain its equilibrium in 3 trials during 1 min on this rotating rod (6 rpm) is used as an indication of such impairment. In Sprague-Dawley rats, minimal motor impairment (MMI) is determined by overt evidence of ataxia, abnormal gait, and stance.

[3] = test system: neurologic toxicity (rotorod test); test: Neurologic toxicity, rotorod test, mice (ip); format: in vivo
Description: as §1

[4] = test system: maximal electroshock (MES)-induced seizures; test: Maximal electroshock seizure (MES) test, mice (ip); format: in vivo; conditions: for ED50: Mus musculus
Description: as §2, §3

[5] = test system: 6 Hz seizures; test: 6 Hz seizure model, mice (ip); format: in vivo; conditions: for 6 Hz, ED50: mice, ip; for seizure activity in the 6 Hz seizure model assay: comparable to or exceeding phenyloin and phenobarbital
[6] = test system: maximal electroshock (MES)-induced seizures; conditions: mice, ip; Table 3, Ref 30, 16, 32; cited from earlier work
[7] = test system: maximal electroshock (MES)-induced seizures; conditions: rat, po; Table 3, Ref 16, 32; cited from earlier work
[8] = read-out: MES, ED50, rat, po, Table 3
[9] = rotorod test, time of peak effect (h) in brackets, Table 2
[10] = behavioral toxicity, Table b608
[11] = mice, ip, 95% confidence intervals in parentheses, Table 1
[12] = mice, ip, time (h) in brackets, (X′—Y′—Z′ group)
[13] = behavioral toxicity, Table b607
[14] = mice, ip, time (h) in brackets, (terminal ring group)
[15] = mice, ip, time (h) in brackets, Table 3, NINDS ASP
[16] = mice, ip, time (h) in brackets, Table 2, footnotes not given

## C#CCOC[C@@H](NC(C)=O)C(=O)NCc1ccc(N=[N+]=[N-])cc1 [(R)-8, (R)—N-(4-Azidobenzyl)-2-acetamido-3-(prop-2-ynyloxy)propanamide]
other
  melting point: 135 to 136 °C

## CC(=O)NCC(=O)NCc1ccc(OCc2cccc(F)c2)cc1 [compound 5, N-4-(3-Fluorobenzyloxy)benzyl 2-Acetamidoacetamide]
[1]; [8]
  ED50: 31 mg/kg
[2]; behavioral toxicity, Table 3
  Tox, TD50: >500 [1.0] milligrams per kilogram
[3]; rotorod test, Table 3
  Tox, TD50: >300 [0.5 and 4.0] milligrams per kilogram

## C#CCOC[C@H](NC(C)=O)C(=O)NCc1ccc(N=[N+]=[N-])cc1 [(S)-8, (S)—N-(4-Azidobenzyl)-2-acetamido-3-(prop-2-ynyloxy)propanamide]
other
  melting point: 135 to 136.5 °C
[2]; time (h) in brackets, Table 2
  Tox, TD50: >30 mg/kg
[3]; [9]
  Tox, TD50: >300 mg/kg

## COC[C@@H](NC(C)=O)C(=O)NCc1ccc(OCc2ccc(F)cc2)cc1 [(R)-22, (R)—N-4-(4-Fluorobenzyloxy)benzyl 2-Acetamido-3-methoxypropionamide]
[2]; [10]
  Tox, TD50: >500 milligrams per kilogram

## C#CCOC[C@@H](NC(C)=O)C(=O)NCc1ccc(N=C=S)cc1
other
  melting point: 157 to 159 °C

## CC(=O)NC(C(=O)NCc1ccccc1)c1ccccc1 (racemic) [(R,S)-6, reference compound]
[4]; [11]
  MES, ED50: 32 mg/kg

## C=CCOCC(NC(C)=O)C(=O)NCc1ccccc1 (racemic) [(R,S)-11, reference compound]
[4]; mice, ip
  MES, ED50: >30, <100 mg/kg

## CC(=O)NC(C(=O)NCc1ccccc1)c1ccco1 (racemic) [(R,S)-5, reference compound]
[4]; [11]
  MES, ED50: 10 (9.1-12) mg/kg

## COC[C@H](NC(C)=O)C(=O)NCc1ccccc1 [(S)—B, reference compound]
[3]; time (h) in brackets, Table 2
  Tox, TD50: >300 [0.5]

## COC[C@@H](NC(C)=O)C(=O)NCc1ccc(COc2cccc(F)c2)cc1 [(R)-16, (R)—N-4-((3-Fluorophenoxy)methyl)benzyl 2-Acetamido-3-methoxypropionamide]
[4]; [12]
  MES, ED50: 5.9 [0.25] milligrams per kilogram
[1]; read-out: MES, ED50, rat, po
  ED50: 19 mg/kg
[2]; [13]
  Tox, TD50: >400 [0.5] milligrams per kilogram
[3]; rotorod test, Table b607
  Tox, TD50: 10 [0.25] milligrams per kilogram

## CCOCC(NC(C)=O)C(=O)NCc1ccccc1 (racemic) [(R,S)-10, reference compound]
[4]; mice, ip
  MES, ED50: 17 mg/kg

## COC[C@@H](NC(C)=O)C(=O)NCc1ccc(COCc2cccc(F)c2)cc1 [(R)-18, (R)—N-4-(((3-Fluoro)benzyloxy)methyl)benzyl 2-Acetamido-3-methoxypropionamide]
other
  melting point: 140 to 142 °C

## COC[C@@H](NC(C)=O)C(=O)NCc1ccc(OCc2cccc(F)c2)cc1 [(R)-10, (R)-2-Acetamido-N-(4-(3-fluorobenzyloxy)benzyl)-3-methoxypropanamide]
[5]; Table 3
  6 Hz, ED50: ~10 [0.25] milligrams per kilogram
[5]; Table b607
  6 Hz, ED50: ~10 [0.25] milligrams per kilogram
[5]; Table b608
  6 Hz, ED50: ~10 [0.25] milligrams per kilogram
[4]; [12]
  MES, ED50: 13 [0.25] milligrams per kilogram
[4]; [14]
  MES, ED50: 13 [0.25] milligrams per kilogram
[4]; [15]
  MES, ED50: 13 [0.25] milligrams per kilogram
[1]
  MES, ED50: 4.9 [1]
[2]; behavioral toxicity, Table 3
  Tox, TD50: >500 [0.5] milligrams per kilogram
[2]; [13]
  Tox, TD50: >500 [0.5] milligrams per kilogram
[2]; [10]
  Tox, TD50: >500 [0.5] milligrams per kilogram
[2]; time (h) in brackets, Table 2
  Tox, TD50: > 280 mg/kg
[3]; rotorod test, Table 3
  Tox, TD50: 26 [0.5] milligrams per kilogram
[3]; rotorod test, Table b607
  Tox, TD50: 26 [0.5] milligrams per kilogram
[3]; rotorod test, Table b608
  Tox, TD50: 26 [0.5] milligrams per kilogram

## COC[C@@H](NC(C)=O)C(=O)NCc1ccc(CCc2cccc(F)c2)cc1 [(R)-13]
[1]; read-out: MES, ED50, rat, po
  ED50: < 30 mg/kg
[2]; [13]
  Tox, TD50: >30 [1] milligrams per kilogram

## COC[C@@H](NC(C)=O)C(=O)NCc1ccc(C2(C(F)(F)F)N=N2)cc1 [(R)-9]
[4]; [16]
  ED50: 15.1 mg/kg

## CC(=O)NC(C(=O)NCc1ccc(C)cc1)c1ccccc1 (stereo not shown) [D, reference compound]
[4]; mice (ip), text b213
  ED50: ~300 mg/kg

## COC[C@@H](NC(C)=O)C(=O)NCc1ccccc1 [(R)—B, (2R)-2-(acetylamino)-N-benzyl-3-methoxypropanamide, reference compound]
[2]; time (h) in brackets, Table 2
  Tox, TD50: > 500 mg/kg

## C#CCOCC(NC(C)=O)C(=O)NCc1ccc(N=[N+]=[N-])cc1 (stereo not shown) [compound 8]
[5]
  seizure activity in the 6 Hz seizure model assay: excellent seizure activity

## CC(=O)N[C@@H](C)C(=O)NCc1ccccc1 [(S)-4, reference compound]
[4]; [11]
  MES, ED50: 550 (460-740) mg/kg
[6]
  MES, ED50: 8.0 milligrams per kilogram

## CC(=O)NC(C)C(=O)NCc1ccccc1 (racemic) [(R,S)-4, reference compound]
[4]; [11]
  MES, ED50: 77 (67-89) mg/kg

## CC(=O)N[C@@H](C)C(=O)NCc1ccc(OCc2cccc(F)c2)cc1 [(S)-6, (S)—N-4-(3-Fluorobenzyloxy)benzyl 2-Acetamidopropionamide, reference compound]
[1]; [8]
  ED50: > 30 mg/kg
[2]; behavioral toxicity, Table 3
  Tox, TD50: >30 [0.25 to milligrams per kilogram
[3]; rotorod test, Table 3
  Tox, TD50: >300 [0.5] milligrams per kilogram

## COC[C@@H](NC(C)=O)C(=O)NCc1ccc(OCc2ccccc2F)cc1 [(R)-21, (R)—N-4-(2-Fluorobenzyloxy)benzyl 2-Acetamido-3-methoxypropionamide]
[4]; [14]
  MES, ED50: 6.7 [0.25] (4.8-9.1) milligrams per kilogram
[2]; [10]
  Tox, TD50: >500 milligrams per kilogram
[3]; rotorod test, Table b608
  Tox, TD50: 37 [0.5] (29-48) milligrams per kilogram

## COC[C@H](NC(C)=O)C(=O)NCc1ccc(OCc2cccc(F)c2)cc1 [(S)-10, (S)-2-Acetamido-N-(4-(3-fluorobenzyloxy)benzyl)-3-methoxypropanamide]
[4]; [15]
  MES, ED50: >300 milligrams per kilogram
[3]; rotorod test, Table 3
  Tox, TD50: >300 milligrams per kilogram

## C#CCOC[C@@H](NC(C)=O)C(=O)NCc1ccccc1 [(R)-7, (R)—N-Benzyl-2-acetamido-3-(prop-2-ynyloxy)propanamide]
other
  melting point: 149 °C

## COC[C@@H](NC(C)=O)C(=O)NCc1ccc(N=[N+]=[N-])cc1 [(R)-5, (R)—N-(4-Azidobenzyl)-2-acetamido-3-methoxypropanamide, reference compound]
[2]; time (h) in brackets, Table 2
  Tox, TD50: > 250 mg/kg

## COC[C@@H](NC(C)=O)C(=O)NCc1ccc(/C=C/c2cccc(F)c2)cc1 [(R)-14, (2-R,E)-N-4-(3-Fluorostyryl)benzyl 2-Acetamido-3-methoxypropionamide]
[5]; Table b607
  6 Hz, ED50: <30 [0.25] milligrams per kilogram
[1]; read-out: MES, ED50, rat, po
  ED50: ~30 mg/kg
[2]; [13]
  Tox, TD50: >30 [0.25, 4.0] milligrams per kilogram

## COC[C@H](NC(C)=O)C(=O)NCc1ccc(OCc2cccc(F)c2)cc1 [(S)-3, (S)-2-Acetamido-N-(4-(3-fluorobenzyloxy)benzyl)-3-methoxypropanamide]
[3]; time (h) in brackets, Table 2
  Tox, TD50: >300 [0.5]

## C#CCOC[C@H](NC(C)=O)C(=O)NCc1ccc(N=C=S)cc1 [(S)-9, (S)—N-(4-Isothiocyanatobenzyl)-2-acetamido-3-(prop-2-ynyloxy)propanamide]
other
  melting point: 157 to 158 °C
[3]; [9]
  Tox, TD50: >300 mg/kg

## C#CCOC[C@H](NC(C)=O)C(=O)NCc1ccccc1 [(S)-7, (S)—N-Benzyl-2-acetamido-3-(prop-2-ynyloxy)propanamide]
other
  melting point: 148.5 to 149 °C
[2]; time (h) in brackets, Table 2
  Tox, TD50: >30 mg/kg
[3]; [9]
  Tox, TD50: >300 mg/kg

## C#CCOCC(NC(C)=O)C(=O)NCc1ccccc1 (stereo not shown) [compound 7]
[5]
  seizure activity in the 6 Hz seizure model assay: excellent seizure activity

## COC[C@@H](NC(C)=O)C(=O)NCc1ccc([N+](=O)[O-])cc1 [F, reference compound]
[4]; mice (ip), text b213
  ED50: 100 to 300 mg/kg

## CCCC(CCC)C(=O)O [valproate]
[4]; [16]
  MES, ED50: 270 [0.25]
[7]
  MES, ED50: 490 [0.5] milligrams per kilogram
[1]
  MES, ED50: 490 [0.5]
[6]
  MES, ED50: 270 [0.25] milligrams per kilogram

## CC(=O)NC(C(=O)NCc1ccc(OCc2cccc(F)c2)cc1)c1ccccn1 (racemic) [(R,S)-9, N-4-(3-Fluorobenzyloxy)benzyl 2-Acetamido-2-(pyridin-2-yl)acetamide]
[4]; [15]
  MES, ED50: 28 [0.5] (20-36) milligrams per kilogram
[1]; [8]
  ED50: > 30 mg/kg
[2]; behavioral toxicity, Table 3
  Tox, TD50: >30 [4] milligrams per kilogram

## COC[C@@H](NC(C)=O)C(=O)NCc1ccc(OCc2ccccc2)cc1 [(R)-20, (R)—N-4′-(Benzyloxy)benzyl 2-N-Acetamido-3-methoxypropionamide]
[4]; [14]
  MES, ED50: 5.8 [0.25] (4.4-7.2) milligrams per kilogram
[2]; [10]
  Tox, TD50: >250 [1.0] milligrams per kilogram
[3]; rotorod test, Table b608
  Tox, TD50: 22 [0.25] (19- milligrams per kilogram

## COC[C@@H](NC(C)=O)C(=O)NCc1ccc(Oc2cccc(F)c2)cc1 [(R)-12, (R)—N-4′-((3″-Fluoro)phenoxy)benzyl 2-N-Acetamido-3-methoxypropionamide]
[5]; Table b607
  6 Hz, ED50: ~10 [0.5] milligrams per kilogram
[4]; [12]
  MES, ED50: 5.5 [0.25] (3.2-6.3) milligrams per kilogram
[1]; read-out: MES, ED50, rat, po
  ED50: < 10 mg/kg
[2]; [13]
  Tox, TD50: >10 [0.25-4.0] milligrams per kilogram
[3]; rotorod test, Table b607
  Tox, TD50: 23 [0.25] (18-28) milligrams per kilogram

## COC[C@H](NC(C)=O)C(=O)NCc1ccc(N=[N+]=[N-])cc1 [(S)-5, (S)—N-(4-Azidobenzyl)-2-acetamido-3-methoxypropanamide, reference compound]
[2]; time (h) in brackets, Table 2
  Tox, TD50: > 30 mg/kg
